Here are results for three molecules from US20240182941A1, “XYLOSYLATED STEVIOL GLYCOSIDES AND ENZYMATIC METHODS FOR PRODUCTION” (CARGILL, INCORPORATED, priority 2021, published 2024).

The test system of the assay is SEQ ID NO:1. As to the kind of experiment: Glycosylation of Reb F, Reb G and Dulcoside A using SEQ ID NO:1 and activated sugars. The assay is classed as biochemical, Oryza sativa Japonica Group. The settings on record: for Rhamnosylation using UDP-rhamnose compared with glucosylation and xylosylation / glucosylation and xylosylation plateauing after: -19C(O)-β-Glc residue; for glucosylation and xylosylation plateauing after: UDP-glucose and UDP-xylose. As to the method: Bioconversion reaction was carried out in a total of 100 uL sealed vials containing the Tris buffer, 0.1 μmoles of SG acceptor, 0.2 μmoles of activated sugar donor, 1 μmoles of sucrose and 2 ug protein of the enzymes. To each vial, buffer, sucrose, UDP-sugar donor, and SG acceptor were added in that order before finally the enzymes were added. For each SG donor, a control was included to contain the same amounts of sucrose and enzymes without UDP-sugar donors. After hand mixing, the vials were placed in a temperature-controlled shaker set at 30C and 100 rpm in rotating motion for 96 hours (4 days).
After 4 days of reaction, 0.9 mL of 80% acetonitrile was added to each vial and the resulting samples were analyzed in LC/MS. Xylose modification of the -19C(O)-β-Glc residue was confirmed.
The ability of SEQ ID NO:1 to glycosylate the -19C(O)-β-Glc residue of RebF, RebG, and Dulcoside A with different activated sugars used at different concentrations was examined, with the reaction products formed being measured over the course of the reaction.
UDP-glucose, UDP-xylose, and UDP-rhamnose di-sodium salts were used, and the reagents and reaction conditions were as described in Example 1.

As to rebaudioside F [Reb F], the “Rhamnosylation using UDP-rhamnose compared with glucosylation and xylosylation” value was “significantly lower”; the “glucosylation and xylosylation plateauing after” value came to 20 min. Also, the “% Reb F bioconversion” value (UDP-Glucose, 0 hours) was 0%. Besides, where the note is “UDP-Glucose, 15 hours”, the “% Reb F bioconversion” value is 85.9%. Moreover, where the note is “UDP-Glucose, 48 hours”, the “% Reb F bioconversion” value is 85.96%. Moreover, the “% Reb F bioconversion” value (UDP-Glucose, 96 hours) stood at 84.4%. Where the note is “UDP-Rhamnose, 0 hours”, the “% Reb F bioconversion” value is 0%. Further, for the setting “UDP-Rhamnose, 15 hours”, the “% Reb F bioconversion” value turned out to be 17.5%. Further, the “% Reb F bioconversion” value (UDP-Rhamnose, 48 hours) turned out to be 28.412%. Moreover, the “% Reb F bioconversion” value (UDP-Rhamnose, 96 hours) stood at 33.216%. Also, the “% Reb F bioconversion” value (UDP-Xylose, 0 hours) worked out at 0%. Further, for the setting “UDP-Xylose, 15 hours”, the “% Reb F bioconversion” value came out at 86.406%. In addition, the “% Reb F bioconversion” value (UDP-Xylose, 48 hours) came out at 86.2%. Besides, the “% Reb F bioconversion” value (UDP-Xylose, 96 hours) was 84.179%.
Consider `C=C1C[C@@]23CC[C@H]4[C@@](C)(CCC[C@@]4(C)C(=O)O[C@@H]4O[C@H](CO)[C@@H](O)[C@H](O)[C@H]4O)[C@@H]2CC[C@]1(O[C@@H]1O[C@H](CO)[C@@H](O)[C@H](O[C@@H]2O[C@H](CO)[C@@H](O)[C@H](O)[C@H]2O)[C@H]1O)C3` [Reb G, rebaudioside G], for which the “Rhamnosylation using UDP-rhamnose compared with glucosylation and xylosylation” value is on record as “significantly lower”; the “glucosylation and xylosylation plateauing after” value is 20 min. In addition, the “% Reb G bioconversion” value (UDP-Glucose, 0 hours) amounted to 0%. The “% Reb G bioconversion” value (UDP-Glucose, 15 hours) is given as 87.748%. For the setting “UDP-Glucose, 48 hours”, the “% Reb G bioconversion” value is recorded as 85.225%. Moreover, the “% Reb G bioconversion” value (UDP-Glucose, 96 hours) turned out to be 83.427%. The “% Reb G bioconversion” value (UDP-Rhamnose, 0 hours) worked out at 0%. Besides, the “% Reb G bioconversion” value (UDP-Rhamnose, 15 hours) is on record as 17.055%. For the setting “UDP-Rhamnose, 48 hours”, the “% Reb G bioconversion” value is listed as 26.923%. Also, the “% Reb G bioconversion” value (UDP-Rhamnose, 96 hours) amounted to 31.347%. For the same molecule, the “% Reb G bioconversion” value (UDP-Xylose, 0 hours) amounted to 0%. Moreover, where the note is “UDP-Xylose, 15 hours”, the “% Reb G bioconversion” value worked out at 78.904%. The “% Reb G bioconversion” value (UDP-Xylose, 48 hours) is 78.311%. Besides, the “% Reb G bioconversion” value (UDP-Xylose, 96 hours) amounted to 77.211%.
For the molecule `C=C1C[C@@]23CC[C@H]4[C@@](C)(CCC[C@@]4(C)C(=O)O[C@@H]4O[C@H](CO)[C@@H](O)[C@H](O)[C@H]4O)[C@@H]2CC[C@]1(O[C@@H]1O[C@H](CO)[C@@H](O)[C@H](O)[C@H]1O[C@@H]1O[C@@H](C)[C@H](O)[C@@H](O)[C@H]1O)C3` [Dulcoside A, dulcoside A], the “Rhamnosylation using UDP-rhamnose compared with glucosylation and xylosylation” value is “significantly lower”; the “glucosylation and xylosylation plateauing after” value was determined as 20 min. For the same molecule, where the note is “UDP-Glucose, 0 hours”, the “% Dul A bioconversion” value was found to be 0%. In addition, the “% Dul A bioconversion” value (UDP-Glucose, 15 hours) came out at 77.162%. For the same molecule, where the note is “UDP-Glucose, 48 hours”, the “% Dul A bioconversion” value is given as 75.215%. The “% Dul A bioconversion” value (UDP-Glucose, 96 hours) was 73.71%. Where the note is “UDP-Rhamnose, 0 hours”, the “% Dul A bioconversion” value came out at 0%. Moreover, under “UDP-Rhamnose, 15 hours”, the “% Dul A bioconversion” value was 17.384%. The “% Dul A bioconversion” value (UDP-Rhamnose, 48 hours) came to 27.427%. Besides, the “% Dul A bioconversion” value (UDP-Rhamnose, 96 hours) was found to be 32.608%. Further, the “% Dul A bioconversion” value (UDP-Xylose, 0 hours) was 0%. For the setting “UDP-Xylose, 15 hours”, the “% Dul A bioconversion” value is given as 79.34%. Where the note is “UDP-Xylose, 48 hours”, the “% Dul A bioconversion” value was found to be 79.919%. Besides, the “% Dul A bioconversion” value (UDP-Xylose, 96 hours) stood at 79.349%.
